# Experimental data taken from ChEMBL document CHEMBL1201862, “PubChem BioAssay data set” (2004).
# Activity calls are given as the source filed them. Rule as the data show it, for most assays here: actives have a measured EC50 and inactives only a lower limit.
# Assays:
# Protein skinhead-1 = target: T1, Protein skinhead-1 (Caenorhabditis elegans, UniProt P34707); type: functional
# T1 sequence (P34707 whole entry): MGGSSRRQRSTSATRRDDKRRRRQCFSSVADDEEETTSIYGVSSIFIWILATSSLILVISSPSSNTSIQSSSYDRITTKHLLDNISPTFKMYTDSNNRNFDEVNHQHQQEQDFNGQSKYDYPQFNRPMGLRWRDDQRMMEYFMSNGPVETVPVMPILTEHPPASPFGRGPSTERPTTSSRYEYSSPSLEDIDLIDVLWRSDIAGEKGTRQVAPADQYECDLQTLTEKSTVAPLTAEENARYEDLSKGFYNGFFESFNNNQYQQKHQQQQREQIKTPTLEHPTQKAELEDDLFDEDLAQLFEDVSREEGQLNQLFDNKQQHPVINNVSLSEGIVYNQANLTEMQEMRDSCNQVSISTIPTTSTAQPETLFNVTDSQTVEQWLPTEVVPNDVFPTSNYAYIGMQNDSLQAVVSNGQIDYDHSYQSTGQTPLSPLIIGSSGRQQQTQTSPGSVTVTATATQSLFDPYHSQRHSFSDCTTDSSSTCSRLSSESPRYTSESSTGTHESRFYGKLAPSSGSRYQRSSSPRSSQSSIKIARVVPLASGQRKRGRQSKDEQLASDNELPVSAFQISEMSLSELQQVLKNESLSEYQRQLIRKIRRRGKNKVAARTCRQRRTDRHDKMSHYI
# [1] = luciferase reporter signal suppression in cells – H4 neuroglioma cells, luminescence, dose response (AID 1990); type: functional, cell-based
# BJ [2] = assay: BJ-TERT fibroblast viability loss – cell-based, RAS-independent, luminescence, dose response (AID 1933); type: functional; conditions: Homo sapiens
# [3] = Luminescence Cell-Based Dose Response HTS to Identify Inhibitors of 5'UTR Stem-Loop Driven Prion Protein mRNA Translation in H4 Neuroglioblastoma Cells. [Related pubchem assays: 1827 (Project Summary), 1813 (Primary HTS)]; type: functional
# [4] = alpha-synuclein stem-loop luciferase translation blockers – H4 neuroglioma cells, luminescence, confirmation (AID 1988); type: functional, cell-based
# BJ [5] = assay: cells; type: functional, cell-based; conditions: Homo sapiens
# BJ [6] = assay: BJ-TERT-LT-ST fibroblast viability loss – cell-based, RAS-independent, luminescence, dose response (AID 1935); type: functional; conditions: Homo sapiens;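 also: BJ fibroblasts immortalized with TERT plus LT and ST oncogenes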
# [7] = DRD fibroblast viability loss – cell-based, non-viral oncogenic, luminescence, dose response (AID 1934); type: functional; conditions: Homo sapiens
# [8] = target: T2, Heat shock factor protein 1 (Mus musculus, UniProt P38532); assay: decrease of HSF1-responsive luciferase luminescence – cell-based, NIH3T3, dose retest, confirmation (AID 2382); type: functional;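 also: NIH3T3 fibroblasts with HSF1-driven luciferase reporter stressed by proteasome inhibitor MG132; luminescence from HSF1-driven luciferase expression after 8 hours of MG132 stress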
# T2 sequence (P38532 whole entry): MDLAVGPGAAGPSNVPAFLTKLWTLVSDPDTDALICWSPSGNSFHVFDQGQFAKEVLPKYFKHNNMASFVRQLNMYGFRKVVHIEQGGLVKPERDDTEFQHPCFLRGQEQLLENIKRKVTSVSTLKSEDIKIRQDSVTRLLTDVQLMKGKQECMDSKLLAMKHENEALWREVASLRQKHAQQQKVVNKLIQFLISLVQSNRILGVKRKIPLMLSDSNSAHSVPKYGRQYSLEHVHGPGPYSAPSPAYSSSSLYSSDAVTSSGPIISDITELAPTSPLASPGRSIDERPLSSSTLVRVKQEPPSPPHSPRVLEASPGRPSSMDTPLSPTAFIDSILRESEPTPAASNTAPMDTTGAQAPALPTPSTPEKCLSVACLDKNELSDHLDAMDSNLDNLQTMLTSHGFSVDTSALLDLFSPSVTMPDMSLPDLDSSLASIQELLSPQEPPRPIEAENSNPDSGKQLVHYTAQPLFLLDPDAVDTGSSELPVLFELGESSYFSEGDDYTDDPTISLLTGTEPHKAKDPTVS
# [9] = Trypanosoma cruzi growth suppression in host cells – NIH3T3 host cells, beta-gal luminescence, confirmation (AID 2044); type: functional, cell-based;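 also: intracellular parasites grown in NIH/3T3 mouse fibroblasts as host cells; luminescent beta-galactosidase reporter signal from transgenic T. cruzi replicating inside host cells; inhibitors lower the luminescence signal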
# [10] = NIH3T3 cell viability loss – ATP luminescence, mouse fibroblasts, counter-screen, dose response (AID 2010); type: functional, cell-based;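 also: cells exposed to compound for about 90 hours before reading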
# [11] = target: T3, Corticotropin-releasing factor receptor 2/Corticotropin-releasing factor-binding protein (Homo sapiens, UniProt P24387+Q13324); assay: Dose Response confirmation of uHTS hits for small molecule antagonists of the CRF-binding protein and CRF-R2 receptor complex.; type: functional; conditions: read-out: IC50_Mean
# T3 sequence (Q13324 whole entry): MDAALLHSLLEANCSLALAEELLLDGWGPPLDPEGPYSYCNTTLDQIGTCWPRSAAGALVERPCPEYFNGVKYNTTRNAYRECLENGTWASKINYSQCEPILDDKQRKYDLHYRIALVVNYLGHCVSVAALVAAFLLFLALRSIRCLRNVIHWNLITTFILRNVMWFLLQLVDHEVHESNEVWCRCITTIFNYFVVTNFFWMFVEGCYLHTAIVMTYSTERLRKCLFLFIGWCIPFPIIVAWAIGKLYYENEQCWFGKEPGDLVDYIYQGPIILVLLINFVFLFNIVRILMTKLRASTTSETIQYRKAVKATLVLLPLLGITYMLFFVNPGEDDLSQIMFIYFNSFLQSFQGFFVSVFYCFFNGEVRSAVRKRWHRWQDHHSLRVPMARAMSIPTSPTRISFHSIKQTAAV
# T3 sequence (P24387 whole entry): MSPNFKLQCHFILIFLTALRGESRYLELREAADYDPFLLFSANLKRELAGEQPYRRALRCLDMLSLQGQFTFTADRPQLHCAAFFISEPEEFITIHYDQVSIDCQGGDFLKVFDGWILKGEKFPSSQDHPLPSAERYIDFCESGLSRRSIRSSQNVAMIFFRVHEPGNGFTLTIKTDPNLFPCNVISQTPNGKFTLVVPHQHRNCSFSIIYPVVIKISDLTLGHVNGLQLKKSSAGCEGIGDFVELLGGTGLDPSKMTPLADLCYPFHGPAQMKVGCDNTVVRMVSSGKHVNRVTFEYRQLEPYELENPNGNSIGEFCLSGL
# [12] = target: T3, Corticotropin-releasing factor receptor 2/Corticotropin-releasing factor-binding protein; assay: activators of CRF receptor 2 with binding protein – uHTS hits, confirmation (AID 602473); type: functional; conditions: read-out: EC50_Mean
# [13] = test system: Streptococcus sp. 'group A'; assay: Streptococcus pyogenes SK(-)GAS viability under kanamycin – luminescence, BacTiterGlo, confirmation, counter-screen for streptokinase expression inhibitor project, dose response (AID 1900); type: functional, organism-based
# Streptococcus = assay: GAS UMAA2166 growth inhibition – luminescence, BacTiterGlo, counter-screen for streptokinase expression inhibitor project, dose response (AID 1915); type: functional, organism-based;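 also: potency for reduction of bacterial viability or growth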
# [14] = target: T2, Heat shock factor protein 1; assay: enhancement of HSF1-driven luciferase signal – cell-based, NIH3T3, luminescence, dose retest, confirmation (AID 435004); type: functional;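 also: stress induced by proteasome inhibitor MG132 added 30 min after compound; luciferase reporter driven by HSF1 response element in NIH3T3 cells; actives raise luminescence as potentiators of the MG132 stress response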
# Paired box protein Pax-8 = Paired box protein Pax-8 (Homo sapiens, UniProt Q06710); assay: PAX8 transcriptional activity inhibition in RMG-I – RMG-I cells, luciferase, cherry-pick, dose response (AID 687027); type: functional, cell-based;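 also: luciferase reporter driven by Pax8 target thyroperoxidase promoter measured by SteadyGlo luminescence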
# Paired box protein Pax-8, sequence (Q06710 whole entry): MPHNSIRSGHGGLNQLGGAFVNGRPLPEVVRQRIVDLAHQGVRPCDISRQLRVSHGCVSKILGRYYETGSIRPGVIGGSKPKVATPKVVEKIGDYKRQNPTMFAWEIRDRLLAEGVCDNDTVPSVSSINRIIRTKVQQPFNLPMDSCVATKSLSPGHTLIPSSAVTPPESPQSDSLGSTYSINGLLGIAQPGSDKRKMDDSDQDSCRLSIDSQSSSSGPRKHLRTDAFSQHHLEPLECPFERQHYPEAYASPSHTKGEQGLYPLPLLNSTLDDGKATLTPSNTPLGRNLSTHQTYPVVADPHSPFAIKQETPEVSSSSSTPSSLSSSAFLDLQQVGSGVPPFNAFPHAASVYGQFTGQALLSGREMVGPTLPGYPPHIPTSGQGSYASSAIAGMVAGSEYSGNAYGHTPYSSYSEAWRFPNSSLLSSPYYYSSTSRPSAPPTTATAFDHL
# [15] = viability of PTEN-deleted HCT116 cells – cell-based, HCT116 PTEN knockout, dose response (AID 1047); type: functional;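 also: HCT116 colon tumor cells with PTEN knocked out; cells exposed to compound for 60 hours before readout; potency for loss of cell viability measured by luminescence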
# [16] = viability of HCT116 lacking mutant beta-catenin – cell-based, human colon tumor, dose response (AID 1045); type: functional;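 also: HCT116 colon tumor cells with beta catenin knocked out; cells exposed to compound for 60 hours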
# [17] = Luminescence Cell-Based Dose Response HTS to Identify Activators of Luciferase Translation or Activity in H4 […] Cells. [Related pubchem assays: 1829 (Project Summary), 1814 (Primary HTS)]; type: functional
# H4 = assay: Luminescence Cell-Based Dose Response HTS to Identify Activators of 5'UTR Stem-Loop Driven Prion Protein mRNA Translation in H4 Neuroglioblastoma Cells. [Related pubchem assays: 1829 (Project Summary), 1814 (Primary HTS)]; type: functional; conditions: Homo sapiens
smiles,measurement,setting,value
CC(=O)NCCc1cc2cc(C)c(C)cc2nc1O,IC50,Protein skinhead-1,> 100 µM (inactive)
Cc1cc(N2CCN(Cc3cn(C)nc3-c3cccc(Cl)c3)CC2)cc(C)n1,EC50,[1],10.4 µM (active)
same,EC50,BJ [2],11.3 µM (active)
same,EC50,[3],8.87 µM (active)
same,EC50,[4],10.6 µM (active)
same,EC50,BJ [5],18.7 µM (active)
same,EC50,BJ [6],> 150 µM (inconclusive)
same,EC50,[7],11.8 µM (active)
Cc1cc(C(=O)CN2C(=O)NC3(CCCc4ccccc43)C2=O)c(C)n1Cc1ccccc1 (centres undefined),IC50,Protein skinhead-1,> 100 µM (inactive)
COc1nc(-c2ccccc2)ccc1-c1noc(-c2ccco2)n1,IC50,Protein skinhead-1,> 100 µM (inactive)
Cc1ccc2c(N)c(C(=O)N(c3ccccc3)c3ccccc3)sc2n1,EC50,[8],> 195 µM (not active)
same,EC50,[9],1.3 µM (active)
same,EC50,[10],> 60 µM (not active)
Cc1nn(C(C)C(=O)O)c(=O)c2ccccc12 (centres undefined),IC50,[11],> 47.1 µM (inactive)
same,EC50,[12],> 53 µM (inactive)
CCCCc1nnc2c(N(C)S(=O)(=O)c3ccccc3)nc3ccccc3n12,IC50,[11],> 47.1 µM (inactive)
same,EC50,[12],> 53 µM (inactive)
C/C=C/Cn1c(Br)nc2c1c(=O)n(C)c(=O)n2C,EC50,[1],> 120 µM (not active)
same,EC50,[3],> 120 µM (not active)
same,EC50,[4],59.3 µM (active)
CCCCN(CC)S(=O)(=O)c1ccc(C(=O)Nc2nnc(-c3ccccc3Cl)o2)cc1,EC50,[1],11.9 µM (active)
same,EC50,[13],0.2 µM (active)
same,EC50,[3],12.1 µM (active)
same,EC50,[4],10 µM (active)
same,EC50,Streptococcus,0.737 µM (active)
COc1ccc(S(=O)(=O)NNC(=O)c2csc(-n3nc(C)cc3C(F)(F)F)n2)cc1,IC50,[11],> 47.1 µM (inactive)
same,EC50,[12],> 53 µM (inactive)
O=[N+]([O-])c1ccc(COc2cccc3cccnc23)cc1,IC50,Protein skinhead-1,> 100 µM (inactive)
COc1ccc(CN(Cc2cc3cc4c(cc3nc2O)OCO4)C(=O)NC2CCCCC2)cc1,EC50,[1],17.8 µM (active)
same,EC50,[3],> 120 µM (not active)
same,EC50,[4],> 120 µM (not active)
O=C(c1ccc2c(=O)n3c(nc2c1)CCCCC3)N1CCN(C(c2ccccc2)c2ccccc2)CC1,EC50,[1],12.7 µM (active)
same,EC50,[3],28.3 µM (active)
same,EC50,[4],24.1 µM (active)
same,EC50,[14],> 260 µM (inactive)
CC(=O)Nc1ccc(NC(=O)CN(c2ccc(C(C)C)cc2)S(=O)(=O)c2ccccc2)cc1,EC50,[1],> 120 µM (not active)
same,EC50,[3],> 120 µM (not active)
same,EC50,[4],> 120 µM (not active)
CCn1c2ccc(F)cc2c2nc3ccccc3nc21,IC50,Protein skinhead-1,> 100 µM (inactive)
C=C(C)c1cccc(C(C)(C)NC(=O)N2CCN(c3ccccc3OC)CC2)c1,AC50,Paired box protein Pax-8,65.2 µM (active)
COc1ccc(NC(=O)c2cc(C(=O)Nc3ccc(OC)cc3OC)cc([N+](=O)[O-])c2)c(OC)c1,IC50,[11],> 47.1 µM (inactive)
same,EC50,[12],> 53 µM (inactive)
CC(C1CC1)N(Cc1ccccc1)C(S)=Nc1cccc(C(F)(F)F)c1 (centres undefined),AC50,Paired box protein Pax-8,33.2 µM (active)
O=C(COC(=O)CC1c2ccccc2CCN1S(=O)(=O)c1ccc(F)cc1)Nc1ccccc1 (centres undefined),IC50,[11],> 47.1 µM (inactive)
same,EC50,[12],> 53 µM (inactive)
COc1ccc(C)cc1C(=O)CCC(=O)Nc1ccccc1N1CCOCC1,EC50,[15],7.32 µM (active)
same,EC50,[16],5.33 µM (active)
O=C(c1ccc(Br)cc1)N1CCN(c2ncccn2)CC1,IC50,[11],> 47.1 µM (inactive)
same,EC50,[12],> 53 µM (inactive)
CCCC1(CCC)NC(=O)N(CC(=O)Nc2ccc(Cl)c(S(=O)(=O)N3CCOCC3)c2)C1=O,IC50,[11],> 47.1 µM (inactive)
same,EC50,[12],> 53 µM (inactive)
CN(C)c1ccc(/C=C(/C#N)C(=O)Nc2nc3c(s2)CCN(Cc2ccccc2)C3)cc1,EC50,[12],2.1 µM (active)
same,IC50,Protein skinhead-1,> 100 µM (inactive)
C[C@H](O)[C@@H]1CN2CCc3c([nH]c4ccc(-c5ccc6c(c5)OCO6)cc34)[C@@H]2C[C@@H]1N(C)C(=O)NC1CCCCC1,AC50,Paired box protein Pax-8,5.9 µM (active)
CCn1ncc(C(=O)Nc2ccc([N+](=O)[O-])cc2OC)c1C,IC50,[11],> 47.1 µM (inactive)
same,EC50,[12],> 53 µM (inactive)
COc1cc(/C=N/NC(=O)c2ccc(CN3C(=O)c4cccc5cccc3c45)cc2)cc(OC)c1O,AC50,Paired box protein Pax-8,0.286 µM (active)
C=CCN(c1ccc(C(=O)NC(C)C)cc1)S(C)(=O)=O,IC50,Protein skinhead-1,> 100 µM (inactive)
COC(=O)[C@]12CCCCC=C1N(Cc1ccc(Cl)cc1Cl)C(=O)[C@H](CC(=O)N1CCN(C(=O)c3ccco3)CC1)C2,AC50,Paired box protein Pax-8,1.33 µM (active)
O=S(=O)(c1ccc(F)cc1)N1C[C@H]2[C@@H](c3ccccc31)[C@H](CO)N2Cc1ccccc1Cl,AC50,Paired box protein Pax-8,11 µM (active)
C[C@@H]1CN([C@@H](C)CO)C(=O)c2cccc(NC(=O)c3ccncc3)c2O[C@@H]1CN(C)S(=O)(=O)c1cccs1,AC50,Paired box protein Pax-8,69.5 µM (active)
C[C@H]1CCCCO[C@H](CN(C)C(=O)Nc2ccc(C(F)(F)F)cc2)[C@@H](C)CN([C@@H](C)CO)C(=O)c2cc(NS(=O)(=O)c3cccs3)ccc2O1,AC50,Paired box protein Pax-8,7.75 µM (active)
N#C/C(=C\c1cccnc1)c1ccc(Br)cc1,IC50,Protein skinhead-1,> 100 µM (inactive)
O=c1c2cc(-c3ccccc3)sc2ncn1/N=C/c1ccco1,EC50,[17],14.8 µM (active)
same,EC50,H4,56.4 µM (active)
same,IC50,Protein skinhead-1,22.1 µM (active)
O=C(N/N=C/c1ccccc1O)c1cccc2ccccc12,EC50,[1],2.12 µM (active)
same,EC50,[13],1.58 µM (active)
same,EC50,[3],17.1 µM (active)
same,EC50,[4],6.71 µM (active)
same,EC50,Streptococcus,6.12 µM (active)
CC/N=C1\S/C(=C\c2ccc(Sc3ccc(Cl)cc3)o2)C(=O)N1CC,EC50,[1],21.4 µM (active)
same,EC50,[3],> 120 µM (not active)
same,EC50,[4],> 120 µM (not active)
